What was measured:
[1] = test system: rats of bile duct ligation; assay: Bile duct ligation (BDL) rat liver fibrosis model; format: in vivo, SD male rats; details: BDL 4 weeks; for Hyp (liver tissue Hyp content): intragastric once daily for 3 weeks from week 2; for Hyp (liver tissue Hyp content) / biliary liver fibrosis scores (integral): x±s
Excerpt: Effect of active component compatibility of Astragalus soup of anti-hepatic fibrosis for rats of bile duct ligation
83 SD male rats, SPF grade, weighing 200˜220 g, by the Shanghai Experimental Animal Center of Chinese Academy of Sciences, Certificate of Conformity: SCXK (Shanghai) 2010-0005, fed on the Shanghai Medical University Experimental Animal Center, free access to water.
Model rats (75 rats) are cut along the ventral midline, exposing the common bile duct, conversely injected hardener into hilus hepatis, ligating proximal and distal ends of the common bile duct, cutting the middle, closing the abdomen for 4 weeks. Sham-operated rats (8 rats) only have abdomen cut, and closed after freeing the common bile duct.
Starting from the first day of 2nd week of modeling, the model rats were randomly divided into 5 groups of astragalus soup, A/B combination, A alone, B alone, and UDCA, each group has 12 rats. While continuing modeling, the groups of administration are intervened by eight times of clinical dose amount of a 65 kg adult body weight. Before using, the drug compositions of astragalus soup, A/B combination, A alone, B alone, and UDCA (UDCA: 80 mg·kg^−1·d^−1, ig) are respectively diluted with 10 ml of distilled water, and is processed with intragastric administration according to 10 ml/kg rat body weight dose, once daily for 3 weeks. And sham-operation control rats (8) and model control group (15) are set; rats in the normal group and the model control group are processed with intragastric administration by the same volume of distilled water.
At the end of 4th week, rats are executed to obtain test samples. HE staining and collagen staining of liver tissue, liver tissue Hyp content, serum liver function: ALT, aspartate aminotransferase, AST, and activity of alkaline phosphatase, ALP, albumin, Alb, and total bilirubin, TBil content.

[2] = test system: DMN-induced rat liver fibrosis model; assay: DMN-induced rat liver fibrosis model, orthogonal design; format: in vivo, Wistar male rats; details: result in words; compared with original astragalus soup
[3] = test system: DMN-induced rat liver fibrosis model; assay: as above; format: in vivo, Wistar male rats
Excerpt: The DMN-induced rat liver fibrosis model and analysis of orthogonal design is used to obtain the optimal ratio of the composition to lower collagen content in the liver.
160 Wistar male rats, (40 in normal group, 120 in the model group), clean level, body weight (150±10) g, provided by the Shanghai Experimental Animal Center of Chinese Academy of Sciences, and is fed, modeled, and observed in Clean Animal room of Shanghai Medical University Experimental Animal Center, free access to water.
Astragalus Astragalosides and Glycyrrhiza Acid are mixed by weight ratio 3:1, 4:1, 5:1 and 6:1, drug composition A+B in different proportions are randomly selected for subsequent experiments.
Referring to Ala-Kokko method of modeling (Ala-Kokko L, Pihlajaniemi T, Myers J C et al. Gene expression of type I, III and IV collagens in liver fibrosis induced by dimethylnitrosamine in the rat. Biochem J 1987; 244: 75-9.) DMN is diluted with saline into 0.5% solution, in the model group, 120 rats are intraperitoneally injected by […] dose, once per day, on the beginning 3 days of a week, for 4 weeks. In normal control group, 40 rats are intraperitoneally injected with normal saline of same dose.
Respectively at the end of three days of modeling, the end of two weeks of modeling, the end of three weeks of modeling, and the end of four weeks of modeling, 10 normal rats, 10 model rats are observed as a model of dynamic observation. Starting from the end of 2 weeks of modeling, the model rats were randomly divided into 1-6 groups of orthogonal design and model group, each having 10 rats. While continuing modeling, the groups of orthogonal design are intervened by eight times of clinical dose amount of a 65 kg adult body weight, administrated respectively in accordance with design amount. Before using, the drug composition is diluted with 10 ml of distilled water, and is processed with intragastric administration according to 10 ml/kg rat body weight dose, once daily for 2 weeks. And normal control rats (10) and model control group (10) are set; rats in the normal group and the model control groups are processed with intragastric administration by the same volume of distilled water.
Astragalus glycosides A, Glycyrrhiza Acid, B, and drugcomposition A+B are factors for evaluation, each factor were set from two levels (level 1=administration, level 2=no), to obtain the orthogonal design. Model groups and normal groups are set.
Measurement data is expressed as x±s, the SAS 9.1.2, DAS 2.1.1 and SPSS16.0 statistical software are used to process data, and single-factor analysis of variance is used for comparisons between multiple groups.

| SMILES | Hyp (liver tissue Hyp content) [1] | biliary liver fibrosis scores (integral) [1] | serum liver function ALP [1] | serum liver function ALT [1] | serum liver function AST [1] | serum liver function Alb [1] | serum liver function TBil [1] | reduces generating of TGF-β1 [2] | Hyp (hydroxyproline content in liver tissue) ([3]; DMN modeling 4 weeks, intragastric once daily for 2 weeks from end of week 2, x±s) | hyperplasia stages of rat liver collagen: stage 0 ([3]; number of rats at stage 0, DMN 4 weeks) | hyperplasia stages of rat liver collagen: stage I ([3]; number of rats at stage I, DMN 4 weeks) | hyperplasia stages of rat liver collagen: stage II ([3]; number of rats at stage II, DMN 4 weeks) | hyperplasia stages of rat liver collagen: stage III ([3]; number of rats at stage III, DMN 4 weeks) | BMP-7 mRNA, protein and protein expression of P-Smad1/5/8 in liver tissue ([3]; result in words, liver fibrosis in rat liver tissues by DMN) | serum liver function ALP ([3]; serum, DMN 4 weeks, x±SD) | serum liver function ALT ([3]; serum, DMN 4 weeks, x±SD) | serum liver function AST ([3]; serum, DMN 4 weeks, x±SD) | serum liver function Alb ([3]; serum, DMN 4 weeks, x±SD) | serum liver function TBil ([3]; serum, DMN 4 weeks, x±SD) |
| --- | --- | --- | --- | --- | --- | --- | --- | --- | --- | --- | --- | --- | --- | --- | --- | --- | --- | --- | --- |
| C[C@H](CCC(=O)O)[C@H]1CC[C@H]2[C@@H]3[C@@H](O)C[C@@H]4C[C@H](O)CC[C@]4(C)[C@H]3CC[C@]12C [UDCA, Ursodeoxycholic acid] | 790.16 ± 129.85^$$ μg/g, wet liver weight | 6.83 ± 0.75^$$ | 79.01 ± 5.80 K/100 ml | 28.79 ± 8.61 U/L | 102.80 ± 26.01 U/L | 24.20 ± 3.64 g/L | 67.60 ± 9.62^$ μmol/L | – | – | – | – | – | – | – | – | – | – | – | – |
| CC1(C)[C@@H](O[C@H]2O[C@H](C(=O)O)[C@@H](O)[C@H](O)[C@H]2O[C@@H]2O[C@H](C(=O)O)[C@@H](O)[C@H](O)[C@H]2O)CC[C@]2(C)[C@H]3C(=O)C=C4[C@@H]5C[C@@](C)(C(=O)O)CC[C@]5(C)CC[C@@]4(C)[C@]3(C)CC[C@@H]12 [B, Glycyrrhiza Acid] | 772.00 ± 86.81^$ μg/g, wet liver weight | 6.50 ± 0.84^$ | 77.22 ± 4.05 K/100 ml | 26.66 ± 7.89 U/L | 93.67 ± 14.46 U/L | 25.07 ± 5.18 g/L | 67.35 ± 7.39^$ μmol/L | significantly better than the original astragalus soup | 595.74 ± 109.74 µg/g | 0 | 0 | 5 | 4 | significantly increase | 38.77 ± 17.84 K/100 ml | 55.18 ± 17.12 U/L | 76.61 ± 14.09^ U/L | 23.11 ± 5.52 g/L | 10.23 ± 5.42 µmol/L |
